Results reported in ChEMBL document CHEMBL3046262, “Inhibitory Activity of Indanofan and Its Enantiomers on Biosynthesis of Very-Long-Chain Fatty Acids” (J Pestic Sci, 2005).
The source made the active and inactive calls. No cut-off for these calls is given here.

Columns and labels:
[1] = test system: Allium ampeloprasum; assay: Inhibition of very long chain fatty acid elongase in Allium ampeloprasum microsome using C20:0 as substrate and [14C]-malonate at 1 x 10^-6 M after 10 to 20 min by liquid scintillation counting; format: microsomes
[2] = test system: Allium ampeloprasum; assay: Inhibition of very long chain fatty acid elongase in Allium ampeloprasum microsome using C18:0 as substrate and [14C]-malonate at 1 x 10^-6 M after 10 to 20 min by liquid scintillation counting; format: microsomes
[3] = test system: Allium ampeloprasum; assay: Inhibition of very long chain fatty acid elongase in Allium ampeloprasum microsome using C20:0 as substrate and [14C]-malonate at 1 x 10^-4 M after 10 to 20 min by liquid scintillation counting; format: microsomes
[4] = Inhibition of very long chain fatty acid elongase in Allium ampeloprasum microsome using C20:0 as substrate and [14C]-malonate after 10 to 20 min by liquid scintillation counting; format: microsomes; conditions: read-out: I50
[5] = Inhibition of very long chain fatty acid elongase in Allium ampeloprasum microsome using C18:0 as substrate and [14C]-malonate after 10 to 20 min by liquid scintillation counting; format: microsomes; conditions: read-out: I50
[6] = test system: Allium ampeloprasum; assay: Inhibition of very long chain fatty acid elongase in Allium ampeloprasum microsome using C20:0 as substrate and [14C]-malonate at 1 x 10^-7 M after 10 to 20 min by liquid scintillation counting; format: microsomes
[7] = test system: Echinochloa crus-galli; assay: Herbicidal activity against Echinochloa crus-galli (barnyard grass) by pot assay; format: functional
[8] = test system: Allium ampeloprasum; assay: Inhibition of very long chain fatty acid elongase in Allium ampeloprasum microsome using C20:0 as substrate and [14C]-malonate at 1 x 10^-5 M after 10 to 20 min by liquid scintillation counting; format: microsomes
[9] = test system: Allium ampeloprasum; assay: Inhibition of very long chain fatty acid elongase in Allium ampeloprasum microsome using C18:0 as substrate and [14C]-malonate at 1 x 10^-5 M after 10 to 20 min by liquid scintillation counting; format: microsomes
[10] = test system: Allium ampeloprasum; assay: Inhibition of very long chain fatty acid elongase in Allium ampeloprasum microsome using C18:0 as substrate and [14C]-malonate at 1 x 10^-4 M after 10 to 20 min by liquid scintillation counting; format: microsomes
[11] = test system: Allium ampeloprasum; assay: Inhibition of very long chain fatty acid elongase in Allium ampeloprasum microsome using C18:0 as substrate and [14C]-malonate at 1 x 10^-8 M after 10 to 20 min by liquid scintillation counting; format: microsomes
[12] = test system: Allium ampeloprasum; assay: Inhibition of very long chain fatty acid elongase in Allium ampeloprasum microsome using C18:0 as substrate and [14C]-malonate at 1 x 10^-7 M after 10 to 20 min by liquid scintillation counting; format: microsomes
[13] = test system: Allium ampeloprasum; assay: Inhibition of very long chain fatty acid elongase in Allium ampeloprasum microsome using C20:0 as substrate and [14C]-malonate at 1 x 10^-8 M after 10 to 20 min by liquid scintillation counting; format: microsomes
[14] = test system: Allium ampeloprasum; assay: Inhibition of very long chain fatty acid elongase in Allium ampeloprasum microsome using C20:0 as substrate and [14C]-malonate at 3 x 10^-8 M after 10 to 20 min by liquid scintillation counting; format: microsomes
[15] = test system: Allium ampeloprasum; assay: Inhibition of very long chain fatty acid elongase in Allium ampeloprasum microsome using C18:0 as substrate and [14C]-malonate at 3 x 10^-9 M after 10 to 20 min by liquid scintillation counting; format: microsomes
[16] = test system: Allium ampeloprasum; assay: Inhibition of very long chain fatty acid elongase in Allium ampeloprasum microsome using C20:0 as substrate and [14C]-malonate at 3 x 10^-9 M after 10 to 20 min by liquid scintillation counting; format: microsomes
[17] = test system: Allium ampeloprasum; assay: Inhibition of very long chain fatty acid elongase-mediated elongation to arachidic acid in Allium ampeloprasum microsome using [14C]-malonate after 10 to 20 min by liquid scintillation counting; format: microsomes
[18] = test system: Allium ampeloprasum; assay: Inhibition of very long chain fatty acid elongase in Allium ampeloprasum microsome using [14C]-malonate assessed per vial at 0.1 uM after 10 to 20 min by liquid scintillation counting; format: microsomes
[19] = test system: Allium ampeloprasum; assay: Inhibition of very long chain fatty acid elongase in Allium ampeloprasum microsome using C18:0 as substrate and [14C]-malonate at 3 x 10^-8 M after 10 to 20 min by liquid scintillation counting; format: microsomes
[20] = test system: Allium ampeloprasum; assay: Competitive inhibition of very long chain fatty acid elongase in Allium ampeloprasum microsome using C18:0-CoA as substrate after 10 min by Lineweaver-Burk plot analysis; format: microsomes

SMILES	inhibition (INH) [1]	inhibition (INH) [2]	inhibition (INH) [3]	IC50 [4]	IC50 [5]	inhibition (INH) [6]	ED50 [7]	inhibition (INH) [8]	inhibition (INH) [9]	inhibition (INH) [10]	inhibition (INH) [11]	inhibition (INH) [12]	inhibition (INH) [13]	inhibition (INH) [14]	inhibition (INH) [15]	inhibition (INH) [16]	inhibition [17]	INH [18]	inhibition (INH) [19]	inhibition [20]
CCC1(C[C@@]2(c3cccc(Cl)c3)CO2)C(=O)c2ccccc2C1=O [(R)-INDANOFAN]	18%	14%	38%	> 1000 µM	> 1000 µM	9%	inactive	27%	23%	25%										
CCC1(CC2(c3cccc(Cl)c3)CO2)C(=O)c2ccccc2C1=O (stereo not drawn) [(RS)-INDANOFAN]				0.071 µM	0.03 µM	60%	0.0524 KgAi/ha				19%	82%	11%	31%	9%	8%	86%	3.6 pmol	49%	
CCC1(C[C@]2(c3cccc(Cl)c3)CO2)C(=O)c2ccccc2C1=O [(S)-INDANOFAN]				0.025 µM	0.017 µM	76%	0.0254 KgAi/ha				30%	93%	31%	54%	7%	15%			71%	Active
